Reference: patent publication US7884136B2, “Modified-release formulations of a bupropion salt” (Biovail Laboratories International S.R.L., priority 2005, dated 2011)
Read-outs that look alike come from different tables or passages of the source.

Tests used:
[1] = cited from earlier work
[2] = Accelerated stability study of bupropion HBr, closed bottles, 40° C./75% RH, 3 and 6 months, HPLC; type: physicochemical; conditions: 40° C./R.H. 75%; for Chromatographic purity B) (HPLC): 4) 2-N-(tert-Butyl)-aminopropiophenone / Chromatographic purity B) (HPLC): 5) single unknown impurity (each): LOQ 0.02%, LOD 0.002%; for Chromatographic purity A) (HPLC): 1) 3′-Chloropropiophenone / Chromatographic purity A) (HPLC): 3) 3′-Chlorobenzoic acid / Chromatographic purity A) (HPLC): 2) 3′-Chloro-2-bromopropiophenone: LOQ 0.05%; for Chromatographic purity A) (HPLC): 1) 3′-Chloropropiophenone / Chromatographic purity A) (HPLC): 3) 3′-Chlorobenzoic acid: LOD 0.01%; for Chromatographic purity A) (HPLC): 2) 3′-Chloro-2-bromopropiophenone: LOD 0.04%; for Assay (HPLC): on d.b.; for Description: specification white or almost white crystalline powder; for Chromatographic purity B) (HPLC): 6) total unknown impurities: sum of all impurity peak areas
Protocol: The samples were prepared in closed bottles and placed in the stability chamber. HPLC analysis was conducted on the samples prior to placing them in the stability chamber (time 0), and after 3 months and 6 months. The amounts of the main degradation products present at time 0 were compared with those amounts present after 3 months and 6 months. […] For each sample tested, at each time period, two different HPLC assays were run. The first assay labelled chromatographic purity A, measured the percentage of three impurities 3′chloropropiophenone, 3′-Chloro-2-bromopropiophenone and 3′-Chlorobenzoic acid. The second assay, labelled chromatographic purity B, measured the percentage of 2-N-(tert-Butyl)-aminopropiophenone, a single unknown impurity and the total unknown impurities.

[3] = Mono- and Diglyceride Surfactants
[4] = Propylene Glycol Fatty Acid Esters
[5] = PEG-Fatty Acid Monoester Surfactants
[6] = PEG-Fatty Acid Diester Surfactants
[7] = Sorbitan Fatty Acid Ester Surfactants, as reported by the manufacturer
[8] = Transesterification Products of Oils and Alcohols

Polyglyceryl-2 isostearate
HLB ([1]; Polyglycerized Fatty Acids): 5-7

CCCCCCCCCCCC(=O)OCC(O)CO (stereo not shown) [Glyceryl laurate]
HLB [1, 3]: 4

CCCCCCCCCCCC(=O)OCC(O)CO (stereo not shown) [Glyceryl monolaurate]
HLB [1, 3]: 6.8

CCCCCCCC(=O)OCC(O)CO (stereo not shown) [Glyceryl caprylate]
HLB [1, 3]: 5-6

Distearin
HLB [1, 3]: <10

CCCCCCCCCC(=O)OCC(C)OC(=O)CCCCCCCCC (stereo not shown) [Propylene glycol dicaprate]
HLB [1, 4]: >6

PEG-7 oleate
HLB [1, 5]: 10.4

PEG-6 stearate
HLB [1, 5]: 9.7

CCCCC/C=C\C/C=C\CCCCCCCC(=O)OCC(O)CO (stereo not shown) [Glycerol monolinoleate]
HLB [1, 3]: 3-4

Sucrose monopalmitate
HLB ([1]; Sugar Ester Surfactants, as reported by the manufacturer): >10

PEG-40 oleate
HLB [1, 5]: 17.4

Polyglyceryl-10 pentaoleate
HLB ([1]; Polyglycerized Fatty Acids): 3.5

PEG-4 distearate
HLB [1, 6]: 5

Sorbitan monostearate
HLB [1, 7]: 4.7

Br.CC(NC(C)(C)C)C(=O)c1cccc(Cl)c1 (stereo not shown) [Bupropion.HBr D00896]
Chromatographic purity (HPLC: A + B) Total impurities ([2]; 3 month): 0.1%
Water content (K.F.) ([2]; 3 month): 0.11%
Chromatographic purity B) (HPLC): 4) 2-N-(tert-Butyl)-aminopropiophenone ([2]; 3 month): 4) 0.03%
Chromatographic purity B) (HPLC): 5) single unknown impurity (each) ([2]; 3 month): 5) 0.04%
Chromatographic purity A) (HPLC): 1) 3′-Chloropropiophenone ([2]; 3 month): 1) n.q.
Chromatographic purity A) (HPLC): 3) 3′-Chlorobenzoic acid ([2]; 3 month): 3) n.q.
Chromatographic purity A) (HPLC): 2) 3′-Chloro-2-bromopropiophenone ([2]; 3 month): 2) n.d.
Assay (HPLC) ([2]; 3 month): 100.0%
Description ([2]; 3 month): conform
Chromatographic purity (HPLC: A + B) Total impurities ([2]; 6 months): 0.1%
Water content (K.F.) ([2]; 6 months): 0.04%
Chromatographic purity B) (HPLC): 4) 2-N-(tert-Butyl)-aminopropiophenone ([2]; 6 months): 4) 0.04%
Chromatographic purity B) (HPLC): 5) single unknown impurity (each) ([2]; 6 months): 5) n.q.
Chromatographic purity A) (HPLC): 1) 3′-Chloropropiophenone ([2]; 6 months): 1) 0.05%
Chromatographic purity A) (HPLC): 3) 3′-Chlorobenzoic acid ([2]; 6 months): 3) n.q.
Chromatographic purity A) (HPLC): 2) 3′-Chloro-2-bromopropiophenone ([2]; 6 months): 2) n.d.
Assay (HPLC) ([2]; 6 months): 100.4%
Description ([2]; 6 months): conform
Chromatographic purity B) (HPLC): 6) total unknown impurities ([2]; 6 months): 6) n.q.
Chromatographic purity (HPLC: A + B) Total impurities ([2]; time 0): 0.1%
Water content (K.F.) ([2]; time 0): 0.06%
Chromatographic purity B) (HPLC): 4) 2-N-(tert-Butyl)-aminopropiophenone ([2]; time 0): 4) 0.04%
Chromatographic purity B) (HPLC): 5) single unknown impurity (each) ([2]; time 0): 5) 0.05%
Chromatographic purity A) (HPLC): 1) 3′-Chloropropiophenone ([2]; time 0): 1) n.d.
Chromatographic purity A) (HPLC): 3) 3′-Chlorobenzoic acid ([2]; time 0): 3) n.q.
Chromatographic purity A) (HPLC): 2) 3′-Chloro-2-bromopropiophenone ([2]; time 0): 2) n.d.
Assay (HPLC) ([2]; time 0): 99.3%
Description ([2]; time 0): conform
Chromatographic purity B) (HPLC): 6) total unknown impurities ([2]; time 0): 6) 0.05%

CC(=O)OCC(O)CO (stereo not shown) [Glyceryl acetate]
HLB [1, 3]: <10

Glyceryl dioleate
HLB [1, 3]: 3-4

PEG-4 dioleate
HLB [1, 6]: 6

PEG-24 cholesterol ether
HLB ([1]; Sterol and Sterol Derivative Surfactants): >10

PEG-9 stearate
HLB [1, 5]: >10

PEG 100, 200, 300 monolaurate
HLB [1, 5]: >10

PEG-1 stearate
HLB [1, 5]: 2

PEG-6 distearate
HLB [1, 6]: 6.5

Sorbitan monooleate
HLB [1, 7]: 4.3

CCCCCCCC/C=C\CCCCCCCC(=O)[O-].[Na+] [Sodium oleate]
HLB ([1]; Ionic Surfactants, as reported by the manufacturer): 18

PEG-40 stearate
HLB [1, 5]: >10

PEG-400 distearate
HLB [1, 6]: >10

PEG 400-1000 monostearate
HLB [1, 5]: >10

CCCCCCCC/C=C\CCCCCCCC(=O)OCC(COC(=O)CCCCCCC/C=C\CCCCCCCC)(COC(=O)CCCCCCC/C=C\CCCCCCCC)COC(=O)CCCCCCC/C=C\CCCCCCCC [Pentaerythrityl tetraoleate]
HLB [1, 8]: <10

Glyceryl monostearate
HLB [1, 3]: 4.4

PEG-100 oleate
HLB [1, 5]: 18.8

PEG-6 dioleate
HLB [1, 6]: 7.2

CCCCCCCC(=O)OCC(O)CO (stereo not shown) [Monocaprylin]
HLB [1, 3]: <10

PEG-10 dipalmitate
HLB [1, 6]: >10

PEG-12 dilaurate
HLB [1, 6]: 11.7

PEG-4 dilaurate
HLB [1, 6]: 7

PEG 4-100 monostearate
HLB [1, 5]: >6

PEG-9 oleate
HLB [1, 5]: >10

CCCCCCCCCCCCCCCCCC(=O)OCC(O)CO (stereo not shown) [Glycerol monostearate]
HLB [1, 3]: 5-9

PEG-12 dioleate
HLB [1, 6]: 10

CCCCCCCCCCCCCCCCCC(=O)OCC(COC(=O)CCCCCCCCCCCCCCCCC)(COC(=O)CCCCCCCCCCCCCCCCC)COC(=O)CCCCCCCCCCCCCCCCC [Pentaerythrityl tetrastearate]
HLB [1, 8]: <10

PEG 4-100 monooleate
HLB [1, 5]: >8

Polyglyceryl-10 trioleate
HLB ([1]; Polyglycerized Fatty Acids): 7

CCCCCCCC(=O)OCC(C)OC(=O)CCCCCCC (stereo not shown) [Propylene glycol dicaprylate]
HLB [1, 4]: >6

Polyglyceryl-4 stearate
HLB ([1]; Polyglycerized Fatty Acids): 5-6

Polyglyceryl-10 tetraoleate
HLB ([1]; Polyglycerized Fatty Acids): 6.2

PEG 100, 200, 300 monooleate
HLB [1, 5]: >10

Polyglyceryl-3 dioleate
HLB ([1]; Polyglycerized Fatty Acids): <10

PEG-600 oleate
HLB [1, 5]: >10

CCCCCCCCCCCCCCCC(=O)OC[C@@H](O)[C@H]1OC[C@H](O)[C@H]1O [Sorbitan monopalmitate]
HLB [1, 7]: 6.7

PEG 4-100 monolaurate
HLB [1, 5]: >9

Polyglyceryl-6 oleate
HLB ([1]; Polyglycerized Fatty Acids): 9

Polyglyceryl-4 oleate
HLB ([1]; Polyglycerized Fatty Acids): 5-7

PEG-12 ricinoleate
HLB [1, 5]: >10

PEG-20 glyceryl oleate
HLB ([1]; PEG Glycerol Fatty Acid Esters): >10

PEG-6 dilaurate
HLB [1, 6]: 9.8

PEG-4 stearate
HLB [1, 5]: 6.5

Br.CC(NC(C)(C)C)C(=O)c1cccc(Cl)c1 (stereo not shown) [Bupropion.HBr D00895]
Chromatographic purity (HPLC: A + B) Total impurities ([2]; 3 month): 0.1%
Water content (K.F.) ([2]; 3 month): 0.07%
Chromatographic purity B) (HPLC): 4) 2-N-(tert-Butyl)-aminopropiophenone ([2]; 3 month): 4) 0.03%
Chromatographic purity B) (HPLC): 5) single unknown impurity (each) ([2]; 3 month): 5) 0.04%
Chromatographic purity A) (HPLC): 1) 3′-Chloropropiophenone ([2]; 3 month): 1) n.q.
Chromatographic purity A) (HPLC): 3) 3′-Chlorobenzoic acid ([2]; 3 month): 3) 0.05%
Chromatographic purity A) (HPLC): 2) 3′-Chloro-2-bromopropiophenone ([2]; 3 month): 2) n.d.
Assay (HPLC) ([2]; 3 month): 100.7%
Description ([2]; 3 month): conform
Chromatographic purity B) (HPLC): 6) total unknown impurities ([2]; 3 month): 6) 0.05%
Chromatographic purity (HPLC: A + B) Total impurities ([2]; 6 months): 0.1%
Water content (K.F.) ([2]; 6 months): 0.07%
Chromatographic purity B) (HPLC): 4) 2-N-(tert-Butyl)-aminopropiophenone ([2]; 6 months): 4) 0.04%
Chromatographic purity B) (HPLC): 5) single unknown impurity (each) ([2]; 6 months): 5) n.q.
Chromatographic purity A) (HPLC): 1) 3′-Chloropropiophenone ([2]; 6 months): 1) 0.05%
Chromatographic purity A) (HPLC): 3) 3′-Chlorobenzoic acid ([2]; 6 months): 3) n.q.
Chromatographic purity A) (HPLC): 2) 3′-Chloro-2-bromopropiophenone ([2]; 6 months): 2) n.d.
Assay (HPLC) ([2]; 6 months): 99.7%
Description ([2]; 6 months): conform
Chromatographic purity B) (HPLC): 6) total unknown impurities ([2]; 6 months): 6) 0.02%
Chromatographic purity (HPLC: A + B) Total impurities ([2]; time 0): 0.1%
Water content (K.F.) ([2]; time 0): 0.04%
Chromatographic purity B) (HPLC): 4) 2-N-(tert-Butyl)-aminopropiophenone ([2]; time 0): 4) 0.04%
Chromatographic purity B) (HPLC): 5) single unknown impurity (each) ([2]; time 0): 5) 0.04%
Chromatographic purity A) (HPLC): 1) 3′-Chloropropiophenone ([2]; time 0): 1) n.d.
Chromatographic purity A) (HPLC): 3) 3′-Chlorobenzoic acid ([2]; time 0): 3) n.q.
Chromatographic purity A) (HPLC): 2) 3′-Chloro-2-bromopropiophenone ([2]; time 0): 2) n.d.
Assay (HPLC) ([2]; time 0): 99.2%
Description ([2]; time 0): conform

Br.CC(NC(C)(C)C)C(=O)c1cccc(Cl)c1 (stereo not shown) [Bupropion.HBr D00894]
Chromatographic purity (HPLC: A + B) Total impurities ([2]; 3 month): 0.1%
Water content (K.F.) ([2]; 3 month): 0.07%
Chromatographic purity B) (HPLC): 4) 2-N-(tert-Butyl)-aminopropiophenone ([2]; 3 month): 4)0.03%
Chromatographic purity B) (HPLC): 5) single unknown impurity (each) ([2]; 3 month): 5) 0.04%
Chromatographic purity A) (HPLC): 1) 3′-Chloropropiophenone ([2]; 3 month): 1) n.q.
Chromatographic purity A) (HPLC): 3) 3′-Chlorobenzoic acid ([2]; 3 month): 3) n.q.
Chromatographic purity A) (HPLC): 2) 3′-Chloro-2-bromopropiophenone ([2]; 3 month): 2) n.d.
Assay (HPLC) ([2]; 3 month): 99.6%
Description ([2]; 3 month): conform
Chromatographic purity B) (HPLC): 6) total unknown impurities ([2]; 3 month): 6) 0.06%
Chromatographic purity (HPLC: A + B) Total impurities ([2]; 6 months): 0.1%
Water content (K.F.) ([2]; 6 months): 0.08%
Chromatographic purity B) (HPLC): 4) 2-N-(tert-Butyl)-aminopropiophenone ([2]; 6 months): 4) 0.04%
Chromatographic purity B) (HPLC): 5) single unknown impurity (each) ([2]; 6 months): 5) n.q.
Chromatographic purity A) (HPLC): 1) 3′-Chloropropiophenone ([2]; 6 months): 1) 0.05%
Chromatographic purity A) (HPLC): 3) 3′-Chlorobenzoic acid ([2]; 6 months): 3) n.q.
Chromatographic purity A) (HPLC): 2) 3′-Chloro-2-bromopropiophenone ([2]; 6 months): 2) n.d.
Description ([2]; 6 months): conform
Chromatographic purity (HPLC: A + B) Total impurities ([2]; time 0): 0.1%
Water content (K.F.) ([2]; time 0): 0.05%
Chromatographic purity B) (HPLC): 4) 2-N-(tert-Butyl)-aminopropiophenone ([2]; time 0): 4) 0.04%
Chromatographic purity B) (HPLC): 5) single unknown impurity (each) ([2]; time 0): 5) 0.04%
Chromatographic purity A) (HPLC): 1) 3′-Chloropropiophenone ([2]; time 0): 1) n.d.
Chromatographic purity A) (HPLC): 3) 3′-Chlorobenzoic acid ([2]; time 0): 3) n.q.
Chromatographic purity A) (HPLC): 2) 3′-Chloro-2-bromopropiophenone ([2]; time 0): 2) n.d.
Assay (HPLC) ([2]; time 0): 99.6%
Description ([2]; time 0): conform
Chromatographic purity B) (HPLC): 6) total unknown impurities ([2]; time 0): 6) 0.04%
